Measurements as given in ChEMBL document CHEMBL4130394, “Novel 6-substituted benzoyl and non-benzoyl straight chain pyrrolo[2,3-d]pyrimidines as potential antitumor agents with multitargeted inhibition of TS, GARFTase and AICARFTase” (Eur J Med Chem, 2017).
pIC50, pKi: −log10 of the molar value. Values belong to the compound of their own block, whether it stands above or below them. Calls of active or inactive are those of the source. The rule behind the calls is not given here.

How the values were obtained:
KB [1] = assay: Cell cycle arrest in human KB cells assessed as accumulation at G1 phase at 5 uM after 96 hrs by propidium iodide staining based flow cytometry (reference value: 54.75%); assay type: functional
KB [2] = assay: Cell cycle arrest in human KB cells assessed as accumulation at G2 phase at 5 uM after 96 hrs by propidium iodide staining based flow cytometry (reference value: 9.59%); assay type: functional
KB [3] = assay: Cell cycle arrest in human KB cells assessed as accumulation at S phase at 5 uM after 96 hrs by propidium iodide staining based flow cytometry (reference value: 35.66%); assay type: functional
MCF7 = assay: Antiproliferative activity against human MCF7 cells in folate free medium after 72 hrs in presence of leucovorin by MTT assay; assay type: functional, cell-based; settings: MCF7, 72 h
SW-620 = assay: Antiproliferative activity against human SW620 cells in folate free medium after 72 hrs in presence of leucovorin by MTT assay; assay type: functional, cell-based; settings: SW-620, 72 h
[4] = target: T1, Bifunctional purine biosynthesis protein ATIC (Homo sapiens, UniProt P31939); assay: Inhibition of AICARFTase in human KB cells assessed as reduction in cell proliferation at 1 to 10 nM after 72 hrs in presence of excess of AICA by MTT assay; assay type: cell-based
Target sequence in this assay (P31939 whole entry, looked up): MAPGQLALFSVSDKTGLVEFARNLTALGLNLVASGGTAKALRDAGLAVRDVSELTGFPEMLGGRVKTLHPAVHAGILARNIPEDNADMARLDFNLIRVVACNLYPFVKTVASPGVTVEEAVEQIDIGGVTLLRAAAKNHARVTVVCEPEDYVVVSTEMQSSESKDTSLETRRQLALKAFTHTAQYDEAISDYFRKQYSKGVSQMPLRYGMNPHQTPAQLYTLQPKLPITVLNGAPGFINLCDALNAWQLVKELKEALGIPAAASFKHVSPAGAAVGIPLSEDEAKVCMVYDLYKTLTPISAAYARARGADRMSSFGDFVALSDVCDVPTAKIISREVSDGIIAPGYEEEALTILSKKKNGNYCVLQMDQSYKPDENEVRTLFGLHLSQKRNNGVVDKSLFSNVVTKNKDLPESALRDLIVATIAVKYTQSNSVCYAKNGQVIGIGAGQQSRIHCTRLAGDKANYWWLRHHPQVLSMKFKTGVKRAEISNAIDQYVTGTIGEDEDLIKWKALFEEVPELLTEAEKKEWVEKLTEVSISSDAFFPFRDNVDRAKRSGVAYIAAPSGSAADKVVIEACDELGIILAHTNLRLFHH

KB [5] = assay: Induction of apoptosis in human KB cells assessed as early apoptotic cells at 1 uM after 48 hrs by Annexin V-FITC/propidium iodide staining based flow cytometry (reference value: 16.9%); assay type: functional
KB [6] = assay: Cell cycle arrest in human KB cells assessed as accumulation at G2 phase at 1 uM after 96 hrs by propidium iodide staining based flow cytometry (reference value: 9.59%); assay type: functional
KB [7] = assay: Cell cycle arrest in human KB cells assessed as accumulation at S phase at 1 uM after 96 hrs by propidium iodide staining based flow cytometry (reference value: 35.66%); assay type: functional
[8] = target: T2, Thymidylate synthase/GAR transformylase/AICAR transformylase (Homo sapiens, UniProt P04818+P31939+P22102); assay: Inhibition of TS/AICARFTase/GARFTase in human KB cells assessed as reduction in cell proliferation in folate free medium after 72 hrs in presence of leucovorin by MTT assay; assay type: cell-based
KB [9] = assay: Inhibition of colony formation in human KB cells at 100 nM after 10 to 14 days by methylene blue staining based assay relative to control; assay type: functional
KB [10] = assay: Cell cycle arrest in human KB cells assessed as accumulation at G1 phase at 1 uM after 96 hrs by propidium iodide staining based flow cytometry (reference value: 54.75%); assay type: functional
KB [11] = assay: Induction of apoptosis in human KB cells assessed as late apoptotic cells at 1 uM after 48 hrs by Annexin V-FITC/propidium iodide staining based flow cytometry (reference value: 5.5%); assay type: functional
[12] = target: T3, Thymidylate synthase/AICAR transformylase (Homo sapiens) (UniProt P04818+P31939); assay: Inhibition of TS/AICARFTase in human KB cells assessed as reduction in cell proliferation at 1 to 10 nM after 72 hrs in presence of excess of thymidine and AICA by MTT assay; assay type: cell-based
KB [13] = assay: Induction of apoptosis in human KB cells assessed as live cells at 1 uM after 48 hrs by Annexin V-FITC/propidium iodide staining based flow cytometry (reference value: 74.6%); assay type: functional
KB [14] = assay: Induction of apoptosis in human KB cells assessed as necrotic cells at 1 uM after 48 hrs by Annexin V-FITC/propidium iodide staining based flow cytometry (reference value: 3%); assay type: functional
[15] = target: T1, Bifunctional purine biosynthesis protein ATIC; assay: Inhibition of recombinant human AICARFTase using AICAR as substrate incubated at 37 degC for 30 mins measured after overnight incubation at 4 degC
Target sequence in this assay (P31939 whole entry): as the sequence (P31939 whole entry, looked up) above

[16] = target: T1, Bifunctional purine biosynthesis protein ATIC; assay: Inhibition of AICARFTase in human KB cells assessed as reduction in cell proliferation up to 1 uM after 72 hrs in presence of excess of AICA by MTT assay; assay type: cell-based
Target sequence in this assay (P31939 whole entry, looked up): as above

[17] = target: T2, Thymidylate synthase/GAR transformylase/AICAR transformylase; assay: Inhibition of TS/AICARFTase/GARFTase in human KB cells assessed as reduction in cell proliferation up to 1 uM after 72 hrs in presence of excess of thymidine and adenosine by MTT assay; assay type: cell-based
[18] = target: GAR transformylase/AICAR transformylase (Homo sapiens) (UniProt P31939+P22102); assay: Inhibition of AICARFTase/GARFTase in human KB cells assessed as reduction in cell proliferation up to 1 uM after 72 hrs in presence of excess of adenosine by MTT assay; assay type: cell-based
[19] = target: T3, Thymidylate synthase/AICAR transformylase (Homo sapiens); assay: Inhibition of TS/AICARFTase in human KB cells assessed as reduction in cell proliferation up to 1 uM after 72 hrs in presence of excess of thymidine and AICA by MTT assay; assay type: cell-based
[20] = target: Thymidylate synthase (Homo sapiens) (UniProt P04818); assay: Inhibition of thymidylate synthase in human KB cells assessed as reduction in cell proliferation up to 1 uM after 72 hrs in presence of excess of thymidine by MTT assay; assay type: cell-based
KB [21] = assay: Induction of apoptosis in human KB cells assessed as live cells at 10 uM after 48 hrs by Annexin V-FITC/propidium iodide staining based flow cytometry (reference value: 74.6%); assay type: functional
KB [22] = assay: Cell cycle arrest in human KB cells assessed as accumulation at S phase at 10 uM after 96 hrs by propidium iodide staining based flow cytometry (reference value: 35.66%); assay type: functional
KB [23] = assay: Induction of apoptosis in human KB cells assessed as late apoptotic cells at 10 uM after 48 hrs by Annexin V-FITC/propidium iodide staining based flow cytometry (reference value: 5.5%); assay type: functional
KB [24] = assay: Induction of apoptosis in human KB cells assessed as early apoptotic cells at 10 uM after 48 hrs by Annexin V-FITC/propidium iodide staining based flow cytometry (reference value: 16.9%); assay type: functional
KB [25] = assay: Induction of apoptosis in human KB cells assessed as necrotic cells at 10 uM after 48 hrs by Annexin V-FITC/propidium iodide staining based flow cytometry (reference value: 3%); assay type: functional
KB [26] = assay: Cell cycle arrest in human KB cells assessed as accumulation at G2 phase at 10 uM after 96 hrs by propidium iodide staining based flow cytometry (reference value: 9.59%); assay type: functional
KB [27] = assay: Cell cycle arrest in human KB cells assessed as accumulation at G1 phase at 10 uM after 96 hrs by propidium iodide staining based flow cytometry (reference value: 54.75%); assay type: functional
KB [28] = assay: Potency index, ratio of pemetrexed IC50 to compound IC50 for human KB cells; assay type: functional
KB [29] = assay: Potency index, ratio of methotrexate IC50 to compound IC50 for human KB cells; assay type: functional

T3 sequence (P04818 whole entry, looked up): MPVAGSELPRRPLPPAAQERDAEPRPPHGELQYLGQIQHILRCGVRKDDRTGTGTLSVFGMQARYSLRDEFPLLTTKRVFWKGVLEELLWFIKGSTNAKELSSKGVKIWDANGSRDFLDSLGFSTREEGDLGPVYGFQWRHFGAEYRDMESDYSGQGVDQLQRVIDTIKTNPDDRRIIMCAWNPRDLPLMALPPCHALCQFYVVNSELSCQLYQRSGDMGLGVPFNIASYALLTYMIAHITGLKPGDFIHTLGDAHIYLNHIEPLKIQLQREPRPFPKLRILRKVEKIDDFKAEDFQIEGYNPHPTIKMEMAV
T3 sequence (P31939 whole entry, looked up): as the sequence (P31939 whole entry, looked up) above
GAR transformylase/AICAR transformylase (Homo sapiens), sequence (P22102 whole entry, looked up): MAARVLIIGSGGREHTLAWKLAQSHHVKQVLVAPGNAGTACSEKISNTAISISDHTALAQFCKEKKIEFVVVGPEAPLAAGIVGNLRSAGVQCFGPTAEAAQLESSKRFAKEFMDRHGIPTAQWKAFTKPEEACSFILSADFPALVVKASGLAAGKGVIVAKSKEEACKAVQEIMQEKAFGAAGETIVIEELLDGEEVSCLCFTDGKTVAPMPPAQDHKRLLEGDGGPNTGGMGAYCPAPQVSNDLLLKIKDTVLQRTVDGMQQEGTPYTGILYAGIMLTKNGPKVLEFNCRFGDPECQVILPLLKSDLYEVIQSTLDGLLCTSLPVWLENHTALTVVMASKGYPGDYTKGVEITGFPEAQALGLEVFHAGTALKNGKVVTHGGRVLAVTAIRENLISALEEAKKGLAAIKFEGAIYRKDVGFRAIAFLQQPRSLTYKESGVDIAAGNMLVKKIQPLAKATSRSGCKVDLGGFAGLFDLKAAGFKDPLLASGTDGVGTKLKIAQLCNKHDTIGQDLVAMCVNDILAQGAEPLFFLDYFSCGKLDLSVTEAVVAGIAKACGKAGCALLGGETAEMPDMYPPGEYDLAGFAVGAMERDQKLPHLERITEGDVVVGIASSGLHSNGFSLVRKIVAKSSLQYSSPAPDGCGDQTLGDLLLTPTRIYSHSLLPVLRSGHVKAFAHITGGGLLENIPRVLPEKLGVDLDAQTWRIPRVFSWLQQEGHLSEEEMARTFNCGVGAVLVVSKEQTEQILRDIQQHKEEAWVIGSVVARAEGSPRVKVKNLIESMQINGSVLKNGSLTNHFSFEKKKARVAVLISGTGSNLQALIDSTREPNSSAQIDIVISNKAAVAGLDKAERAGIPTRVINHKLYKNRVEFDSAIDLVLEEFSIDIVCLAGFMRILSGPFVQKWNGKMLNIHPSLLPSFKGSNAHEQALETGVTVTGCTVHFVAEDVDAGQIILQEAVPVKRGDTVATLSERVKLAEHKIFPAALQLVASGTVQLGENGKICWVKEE
GAR transformylase/AICAR transformylase (Homo sapiens), sequence (P31939 whole entry, looked up): as the sequence (P31939 whole entry, looked up) above
T2 sequence (P04818 whole entry, looked up): as the sequence (P04818 whole entry, looked up) above
T2 sequence (P22102 whole entry, looked up): as the sequence (P22102 whole entry, looked up) above
T2 sequence (P31939 whole entry, looked up): as the sequence (P31939 whole entry, looked up) above
Thymidylate synthase (Homo sapiens), sequence (P04818 2-313 limits assumed): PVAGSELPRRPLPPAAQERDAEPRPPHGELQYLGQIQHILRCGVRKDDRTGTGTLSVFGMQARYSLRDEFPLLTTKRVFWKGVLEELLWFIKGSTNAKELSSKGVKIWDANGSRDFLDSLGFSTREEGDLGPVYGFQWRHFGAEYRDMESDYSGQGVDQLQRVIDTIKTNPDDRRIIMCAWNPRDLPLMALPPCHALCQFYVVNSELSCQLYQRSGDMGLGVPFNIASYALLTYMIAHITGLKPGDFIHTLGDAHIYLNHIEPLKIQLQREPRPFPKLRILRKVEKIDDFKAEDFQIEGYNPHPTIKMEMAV

SMILES: COc1cc([C@@H]2c3cc4c(cc3[C@@H](O[C@@H]3O[C@@H]5CO[C@@H](C)O[C@H]5[C@H](O)[C@H]3O)[C@H]3COC(=O)[C@H]23)OCO4)cc(OC)c1O [ETOPOSIDE]
Activity (KB [1]): 96.81%
Activity (KB [2]): 3.19%
Activity (KB [3]): 0%

pIC50 (MCF7): 7.01
pIC50 (SW-620): 7.66
SMILES: CN(Cc1cnc2nc(N)nc(N)c2n1)c1ccc(C(=O)N[C@@H](CCC(=O)O)C(=O)O)cc1 [METHOTREXATE]

inhibition [4]: Active
pIC50 (MCF7): 5.95
IC50 [8]: 7.5 ×10⁻³ microM
pIC50 (SW-620): 6.01
inhibition [12]: Active
SMILES: Nc1nc2[nH]c(CC(=O)Nc3ccc(C(=O)N[C@@H](CCC(=O)O)C(=O)O)cc3)cc2c(=O)[nH]1
Activity (KB [5]): 36.2%
Activity (KB [6]): 0%
Activity (KB [7]): 68.62%
inhibition at 0.1 µM (KB [9]): > 80%
Activity (KB [10]): 31.38%
Activity (KB [11]): 7.1%
Activity (KB [13]): 55.4%
Activity (KB [14]): 1.3%

pKi [15]: 8.10
SMILES: Nc1nc2ccc(S(=O)(=O)Nc3ccc(C(=O)N[C@@H](CCC(=O)O)C(=O)O)cc3)cc2c(=O)[nH]1

pIC50 (MCF7): 5.62
IC50 [8]: 0.092 µM
pIC50 (SW-620): 5.96
SMILES: Nc1nc2[nH]c(CC(=O)NCCC(=O)N[C@@H](CCC(=O)O)C(=O)O)cc2c(=O)[nH]1

inhibition [16]: Active
inhibition [17]: inactive
pIC50 (MCF7): 5.96
IC50 [8]: 1.4 ×10⁻⁴ microM
pIC50 (SW-620): 6.25
inhibition [18]: inactive
inhibition [19]: Active
inhibition [20]: inactive
SMILES: Nc1nc2[nH]c(CC(=O)NCCCCCC(=O)N[C@@H](CCC(=O)O)C(=O)O)cc2c(=O)[nH]1

pIC50 (MCF7): 6.19
pIC50 (SW-620): 7.05
SMILES: Nc1nc2[nH]cc(CCc3ccc(C(=O)N[C@@H](CCC(=O)O)C(=O)O)cc3)c2c(=O)[nH]1 [PEMETREXED]
Activity (KB [21]): 10.2%
Activity (KB [22]): 38.05%
Activity (KB [23]): 21.8%
Activity (KB [24]): 67%
Activity (KB [25]): 1%
Activity (KB [26]): 0%
Activity (KB [27]): 61.95%

inhibition [16]: Active
inhibition [17]: inactive
pIC50 (MCF7): 6.04
IC50 [8]: 7.8 ×10⁻⁵ uM
pIC50 (SW-620): 6.10
inhibition [18]: inactive
inhibition [19]: Active
inhibition [20]: inactive
SMILES: Nc1nc2[nH]c(CC(=O)NCC(=O)N[C@@H](CCC(=O)O)C(=O)O)cc2c(=O)[nH]1
Activity (KB [5]): 35.4%
Activity (KB [6]): 2.43%
Activity (KB [7]): 44.96%
inhibition at 0.1 µM (KB [9]): > 90%
Activity (KB [10]): 52.6%
Ratio IC50 (KB [28]): 1000
Activity (KB [11]): 6.4%
Ratio IC50 (KB [29]): 140
Activity (KB [13]): 57.9%
Activity (KB [14]): 0.3%

pIC50 (MCF7): 5.42
IC50 [8]: 0.043 µM
pIC50 (SW-620): 5.94
SMILES: Nc1nc2[nH]c(CC(=O)NCCCCC(=O)N[C@@H](CCC(=O)O)C(=O)O)cc2c(=O)[nH]1

pIC50 (MCF7): 5.44
IC50 [8]: 0.107 µM
pIC50 (SW-620): 6.02
SMILES: Nc1nc2[nH]c(CC(=O)NCCCC(=O)N[C@@H](CCC(=O)O)C(=O)O)cc2c(=O)[nH]1
